Results taken from patent US20230312587A1, “PTERIDINONE COMPOUNDS AND USES THEREOF” (Vertex Pharmaceutical Incorporated, priority 2018, published 2023).
Where two headings read alike, the source gives them in different places.

Experiments:
[1] = tested on: β-catenin-TCF-mediated reporter transcription activity in Colo 205 cells; assay: Colo 205 reporter assay (TCF/LEF luciferase); format: cell-based; settings: Colo 205 TCF/LEF luciferase reporter, five hours after addition of compound, read-out: TCF reporter Colo205 IC50
Method in brief: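 Luciferase signal from a TCF/LEF-driven reporter, stably integrated in Colo 205 colon cancer cells, was measured 5 h after compound addition.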

[2] = tested on: Colo205-TCF/LEF-Luciferase (Luc) tumor; assay: In vivo inhibition of TCF/LEF reporter activity in Colo-205 tumors; parameters: concentration or dose not given beside the values; settings: TCF/LEF luciferase reporter in Colo-205 tumors, nu/nu mice, oral gavage
Description: Colo205-TCF/LEF-Luciferase (Luc) tumor cells were expanded in complete DMEM cell culture media [DMEM (Life Technologies, product #11960-051) media supplemented with 10% FBS (Hyclone, catalog #SH30071.03), antimycotic/antibiotic (Life Technologies, product #15240-062), and Glutamax (Life Technologies, product #35050-061)] with 1 ug/ml puromycin. After reaching confluency/high density, the loosely attached cells in media were transferred from the flask to 50 ml conical tubes. Tumor cells adhered to plastic were detached with trypsin and combined with cells in the conical tubes. The tumor cells were triturated, counted, and pelleted by centrifugation. Cell pellets were resuspended in 0.9% injectable saline (6×10^7 cells/ml). A 50 ul volume (3×10^6 cells) was injected subcutaneously in the flanks of 4-6 wk old female nu/nu mice (Charles River Laboratories). Approximately 13-16 days after implantation, tumors between 200-500 mm^3 were selected (based on caliper measurements and applying the formula […]) and randomized into groups of n=4. Mice were dosed by oral gavage with compound dissolved in 1:3:5:1 EtOH:DMSO:PEG-400:H2O at a rate of 10 ml/kg or 1:3:5:1 EtOH:DMSO:PEG-400:H2O alone (Vehicle Control). Tumors were collected from mice euthanized by CO2 inhalation and snap frozen in liquid nitrogen. Tumors were stored in a −80 degrees C. freezer until they were processed.
Tumors were thawed on ice and homogenized in cold Lysis Buffer (20 mM Tris-HCl (pH 7.5), 150 mM NaCl, 1 mM Na2EDTA, 1 mM EGTA, 1% Triton, 2.5 mM sodium pyrophosphate, 1 mM beta-glycerophosphate, 1 mM Na3VO4, 1 μg/ml leupeptin, 0.05% SDS) using a closed tissue grinder system (Fisher Scientific, Cat #02-542-09) on ice according to manufacturer's instructions. For 100 mg of tumor, 500 uL of Lysis Buffer was used. Tumor lysate was transferred to a pre-chilled microcentrifuge tube and centrifuged at 10,000×g for 10 minutes at 4 degrees C. Supernatant was transferred to a new pre-chilled microcentrifuge tube and was used immediately for analysis of protein content and luciferase activity.
Protein content of tumor lysate supernatant was determined using the BCA assay (Life Technologies Cat #23225). Luciferase activity of tumor lysate supernatant was determined by addition of Steady-Glo luminescence reagent (Promega, Cat #E2550) according to manufacturer's instructions and measurement on a Pherastar luminescence plate reader (BMG Labtech). Luciferase activity was normalized to protein content.

Cc1nc(NCc2cnn(Cc3ccc(C(F)(F)F)o3)c2)nc2c1NC(=O)[C@H](C(C)C)N2C [Compound 518, (S)-7-isopropyl-4,8-dimethyl-2-(((1-((5-(trifluoromethyl)furan-2-yl)methyl)-1H-pyrazol-4-yl)methyl)amino)-7,8-dihydropteridin-6(5H)-one]
IC50 ([1]; Homo sapiens, COLO 205, 5 h): < 300 nM | Percent Remaining Activity at 8 hrs after Dosing [2]: 21%

Cc1nc(N[C@@H]2CCc3nn(Cc4ccc(C(F)(F)F)nc4)cc32)nc2c1NC(=O)[C@H](C(C)C)N2C [Compound 522, (S)-7-isopropyl-4,8-dimethyl-2-(((R)-2-((6-(trifluoromethyl)pyridin-3-yl)methyl)-2,4,5,6-tetrahydrocyclopenta[c]pyrazol-4-yl)amino)-7,8-dihydropteridin-6(5H)-one]
IC50 ([1]; Homo sapiens, COLO 205, 5 h): < 300 nM | Percent Remaining Activity at 8 hrs after Dosing [2]: 91%

Cc1nc(N[C@H]2C[C@@H](Nc3cc(C(F)(F)F)ncn3)C2)nc2c1NC(=O)[C@H](C(C)C)N2C [Compound 528, (S)-7-isopropyl-4,8-dimethyl-2-((cis-3-((6-(trifluoromethyl)pyrimidin-4-yl)amino)cyclobutyl)amino)-7,8-dihydropteridin-6(5H)-one]
IC50 ([1]; Homo sapiens, COLO 205, 5 h): < 300 nM | Percent Remaining Activity at 8 hrs after Dosing [2]: 28%

COc1c(F)cc(C(=O)N2CC(Nc3nc(C)c4c(n3)N(C)[C@@H](C(C)C)C(=O)N4)C2)cc1F [Compound 542, (S)-2-((1-(3,5-difluoro-4-methoxybenzoyl)azetidin-3-yl)amino)-7-isopropyl-4,8-dimethyl-7,8-dihydropteridin-6(5H)-one]
IC50 ([1]; Homo sapiens, COLO 205, 5 h): < 300 nM | Percent Remaining Activity at 8 hrs after Dosing [2]: 22%

Cc1nc(NC2CN(C(=O)c3ccc(C(F)(F)F)nc3)C2)nc2c1NC(=O)[C@H](C(C)C)N2C [Compound 545, (S)-7-isopropyl-4,8-dimethyl-2-((1-(6-(trifluoromethyl)nicotinoyl)azetidin-3-yl)amino)-7,8-dihydropteridin-6(5H)-one]
IC50 ([1]; Homo sapiens, COLO 205, 5 h): 300 to 1000 nM | Percent Remaining Activity at 8 hrs after Dosing [2]: 51%

Cc1nc(NC2CN(C(=O)c3ccc(Cl)nc3)C2)nc2c1NC(=O)[C@H](C(C)C)N2C [Compound 549, (S)-2-((1-(6-chloronicotinoyl)azetidin-3-yl)amino)-7-isopropyl-4,8-dimethyl-7,8-dihydropteridin-6(5H)-one]
IC50 ([1]; Homo sapiens, COLO 205, 5 h): 1000 to 5000 nM | Percent Remaining Activity at 8 hrs after Dosing [2]: 30%

Cc1nc(N[C@H]2C[C@@H](Nc3ccc(C(F)(F)F)nn3)C2)nc2c1NC(=O)[C@H](C(C)C)N2C [Compound 556, (S)-7-isopropyl-4,8-dimethyl-2-((cis-3-((6-(trifluoromethyl)pyridazin-3-yl)amino)cyclobutyl)amino)-7,8-dihydropteridin-6(5H)-one]
IC50 ([1]; Homo sapiens, COLO 205, 5 h): < 300 nM | Percent Remaining Activity at 8 hrs after Dosing [2]: 62%

Cc1nc(N[C@H]2C[C@@H](Nc3cnc(C(F)(F)F)cn3)C2)nc2c1NC(=O)[C@H](C(C)C)N2C [Compound 557, (S)-7-isopropyl-4,8-dimethyl-2-((cis-3-((5-(trifluoromethyl)pyrazin-2-yl)amino)cyclobutyl)amino)-7,8-dihydropteridin-6(5H)-one]
IC50 ([1]; Homo sapiens, COLO 205, 5 h): < 300 nM | Percent Remaining Activity at 8 hrs after Dosing [2]: 20%

CO[C@H](C)[C@H]1C(=O)Nc2c(C)nc(NCc3cnn(Cc4ccc(OC(F)(F)F)nc4)c3)nc2N1C [Compound 565, (S)-7-((R)-1-methoxyethyl)-4,8-dimethyl-2-(((1-((6-(trifluoromethoxy)pyridin-3-yl)methyl)-1H-pyrazol-4-yl)methyl)amino)-7,8-dihydropteridin-6(5H)-one]
IC50 ([1]; Homo sapiens, COLO 205, 5 h): < 300 nM | Percent Remaining Activity at 8 hrs after Dosing [2]: 68%

Cc1nc(N[C@H]2C[C@@H](Nc3cnc(C(F)(F)F)cn3)C2)nc2c1NC(=O)[C@H](C)N2C [Compound 578, (S)-4,7,8-trimethyl-2-((cis-3-((5-(trifluoromethyl)pyrazin-2-yl)amino)cyclobutyl)amino)-7,8-dihydropteridin-6(5H)-one]
IC50 ([1]; Homo sapiens, COLO 205, 5 h): < 300 nM | Percent Remaining Activity at 8 hrs after Dosing [2]: 47%

COCC[C@H]1C(=O)Nc2c(C)nc(NCc3cnn(Cc4ccc(C(F)(F)F)nc4)c3)nc2N1C [Compound 589, (S)-7-(2-methoxyethyl)-4,8-dimethyl-2-(((1-((6-(trifluoromethyl)pyridin-3-yl)methyl)-1H-pyrazol-4-yl)methyl)amino)-7,8-dihydropteridin-6(5H)-one]
IC50 ([1]; Homo sapiens, COLO 205, 5 h): < 300 nM | Percent Remaining Activity at 8 hrs after Dosing [2]: 94%

Cc1nc(N[C@H]2C[C@@H](Nc3cnc(C#N)cn3)C2)nc2c1NC(=O)[C@H](C(C)C)N2C [Compound 602, 5-((cis-3-(((S)-7-isopropyl-4,8-dimethyl-6-oxo-5,6,7,8-tetrahydropteridin-2-yl)amino)cyclobutyl)amino)pyrazine-2-carbonitrile]
IC50 ([1]; Homo sapiens, COLO 205, 5 h): 300 to 1000 nM | Percent Remaining Activity at 8 hrs after Dosing [2]: 57%

CO[C@H](C)[C@H]1C(=O)Nc2c(C)nc(NCc3cnn(Cc4cc(C(F)(F)F)nn4C)c3)nc2N1C [Compound 656, (S)-7-((R)-1-methoxyethyl)-4,8-dimethyl-2-(((1-((1-methyl-3-(trifluoromethyl)-1H-pyrazol-5-yl)methyl)-1H-pyrazol-4-yl)methyl)amino)-7,8-dihydropteridin-6(511)-one]
IC50 [1]: < 300 nM | Percent Remaining Activity at 8 hrs after Dosing [2]: 51%

CO[C@H](C)[C@H]1C(=O)Nc2c(C)nc(NCc3cnn(Cc4ccc(F)cc4)c3)nc2N1C [Compound 658, (S)-2-(((1-(4-fluorobenzyl)-1H-pyrazol-4-yl)methyl)amino)-7-((R)-1-methoxyethyl)-4,8-dimethyl-7,8-dihydropteridin-6(5H)-one]
IC50 ([1]; Homo sapiens, COLO 205, 5 h): < 300 nM | Percent Remaining Activity at 8 hrs after Dosing [2]: 62%

COCC[C@H]1C(=O)Nc2c(C)nc(NCc3cnn(Cc4cc(C(F)(F)F)nn4C)c3)nc2N1C [Compound 678, (S)-7-(2-methoxyethyl)-4,8-dimethyl-2-(((1-((1-methyl-3-(trifluoromethyl)-1H-pyrazol-5-yl)methyl)-1H-pyrazol-4-yl)methyl)amino)-7,8-dihydropteridin-6(5H)-one]
IC50 ([1]; Homo sapiens, COLO 205, 5 h): < 300 nM | Percent Remaining Activity at 8 hrs after Dosing [2]: 75%

(S)-7-ethyl-2-(((1-((2-isopropyloxazol-5-yl)methyl)-1H-pyrazol-4-yl)methyl)amino)-4,8-dimethyl-7,8-dihydropteridin-6(5H)-one [Compound 513]
IC50 [1]: < 300 nM | Percent Remaining Activity at 8 hrs after Dosing [2]: 90%
